Data: US8304448B2, “Method for the treatment of metabolic disorder containing benzazole derivatives as an active ingredient” (Korea Research Institute of Bioscience and Biotechnology, priority 2006, dated 2012)

Tests used:
[1] = tested on: ICR mice; experiment: Acute toxicity, oral administration for two weeks, mice; format: in vivo; settings: oral 100 and 250 mg/kg for two weeks
Description: An assay of the benzazole derivatives of Chemical Formula 1 in accordance with the present invention was performed for acute toxicity on mice (20±5 g, Central Lab. Animal Inc.) and rats (235±10 g, Central Lab. Animal Inc.).
For this, ICR mice and Sprague-Dawley rats were assigned to 4 groups of 10 and orally administered with Compound 22 in doses of 100 and 250 mg/kg for two weeks.

[2] = tested on: ICR mice fed a high-fat diet; experiment: In vivo assay for anti-obesity activity in mice fed a high-fat diet; parameters: species or system mouse
Description: Also, the derivatives of Chemical Formula 1 were tested for resistance to obesity by iterative oral administration at a dose of 10 mg/kg into ICR male mice (refer to Example 3). […] When they were administered, the levels of total triglycerides, total cholesterols, and low density lipoprotein (LDL)-cholesterol in the blood recovered to almost normal levels, with a significant increase observed in the level of high density lipoprotein (HDL)-cholesterol in the blood (refer to Tables 6 and 7 and FIGS. 3 and 4).
In order to verify the anti-obesity activity of the benzaldehyde derivatives of Chemical Formula 1 in accordance with the present invention, Compounds 22 and 31 were administered repetitively into rodents as follows.
The experimental animals were 6 week old ICR mice which were purchased from Japan SLC, Inc. via Central Lab. Animal Inc. Korea. They were acclimated to a new environment for one week before use, and fed with a foodstuff commercially available from Deyts, U.S.A. They were bred in an animal lab set at a temperature of 23±3° C. and RH 50±10% under light of 150˜300 Lux for a period of 12 hours (6 a.m.˜6 p.m.) with ventilation 10-20 times/hour. All of the 12 mice used were male, and were organized into two groups of 6. The test group was orally administered once a day at 4 p.m. with 10 mg/kg of the compound (Chemical Formula 1) in the form of a solution in biological saline for 35 days while the control was administered with biological saline only. Xenical, a commercially available lipase inhibitor, was administered orally at a dose of 10 mg/kg once a day as a positive control drug.
The animals were measured for body weight every week and sacrificed on Day 35, after which blood from the heart was sampled. Abdominal fat, epididymal fat, retroperitoneal fat and the liver were excised and weighed. Blood samples were assayed for total triglyceride, total cholesterol, HDL-cholesterol and LDL-cholesterol using respective test kits, all commercially available from Asan Pharmaceutical Co. Ltd., Korea.
For evidence of anti-obesity activity, compounds 22 and 31 were orally administered at regular intervals at a dose of 10 mg/kg into ICR male mice for a predetermined period of time with the concurrent provision of conditional diets thereto. Anatomized abdomens of the animals are given in the photographs of FIG. 2.

[3] = Day 35, high-fat diet, 10 mg/kg oral, Mean ± SD
[4] = blood, Day 35, high-fat diet, 10 mg/kg oral, Mean ± SD

O=C(NCc1ccco1)c1ccc2oc(COc3ccc(C45CC6CC(CC(C6)C4)C5)cc3)nc2c1 [Cpd. 22, 2-(4-adamantan-1-yl-phenoxymethyl)-benzoxazole-5-carboxylic acid (furan-2-ylmethyl)-amide]
apparent symptoms [1]: no apparent symptoms different from the control
abdominal fat increment (FIG. 2) ([2]; 10 mg/kg, compared to groups fed only the high-fat diet, final day): significantly decreased
(Tissue Weight/Body Weight) × 100 Abdominal Fat + Epididymal Fat [2, 3]: 3.97 ± 0.72
(Tissue Weight/Body Weight) × 100 Liver [2, 3]: 4.66 ± 0.65
(Tissue Weight/Body Weight) × 100 Retroperitoneal Fat [2, 3]: 1.24 ± 1.31
(Tissue Weight/Body Weight) × 100 Total Fat [2, 3]: 5.24 ± 0.91
HDL-Cholesterol [2, 4]: 21.66 ± 2.16 mg/dL
LDL-Cholesterol [2, 4]: 37.57 ± 15.14 mg/dL
Total Cholesterol [2, 4]: 68.89 ± 14.95 mg/dL
Total Triglyceride [2, 4]: 48.33 ± 9.83 mg/dL
inhibition of body weight gain ([2]; high-fat diet, 10 mg/kg oral once a day for 35 days): 68%
Body Weight (g) (Mean ± SD) Week 0 ([2]; high-fat diet, 10 mg/kg oral once a day, Week 0): 26.30 ± 1.27 g
Body Weight (g) (Mean ± SD) Week 1 ([2]; high-fat diet, 10 mg/kg oral once a day, Week 1): 34.75 ± 1.75 g
Body Weight (g) (Mean ± SD) Week 2 ([2]; high-fat diet, 10 mg/kg oral once a day, Week 2): 37.94 ± 2.33 g
Body Weight (g) (Mean ± SD) Week 3 ([2]; high-fat diet, 10 mg/kg oral once a day, Week 3): 40.34 ± 3.39 g
Body Weight (g) (Mean ± SD) Week 4 ([2]; high-fat diet, 10 mg/kg oral once a day, Week 4): 42.48 ± 2.90 g
Body Weight (g) (Mean ± SD) Week 5 ([2]; high-fat diet, 10 mg/kg oral once a day, Week 5): 43.90 ± 1.20 g
